Data: PMC8151276, “An Integrated Approach toward NanoBRET Tracers for Analysis of GPCR Ligand Engagement” (Molecules, 2021)

Key:
Type in all cases: binding
P2RY11 = biological target: T1, P2RY11 (Homo sapiens, UniProt Q96G91); assay: NanoBRET screen HiBiT-P2RY11 in HEK293; conditions: P2RY11
T1 construct: purchased Promega (in-house HiBiT-GPCR construct library, NanoBRET)
T1 sequence (Q96G91 1-374): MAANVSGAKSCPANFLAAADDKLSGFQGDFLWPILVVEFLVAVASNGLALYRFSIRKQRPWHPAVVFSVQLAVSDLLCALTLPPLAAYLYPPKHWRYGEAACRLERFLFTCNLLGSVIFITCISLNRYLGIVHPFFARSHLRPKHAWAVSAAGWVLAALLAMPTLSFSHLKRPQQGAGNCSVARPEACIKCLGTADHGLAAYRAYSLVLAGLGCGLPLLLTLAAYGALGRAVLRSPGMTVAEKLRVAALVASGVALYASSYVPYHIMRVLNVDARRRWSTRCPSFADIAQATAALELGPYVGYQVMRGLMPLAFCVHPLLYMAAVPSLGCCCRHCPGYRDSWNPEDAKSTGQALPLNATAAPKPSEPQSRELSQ
Experimental: (§1) Each tracer candidate was screened across the entire library of HiBiT-GPCR constructs using NanoBRET as the detection modality. As depicted in Figure 4A, the specificity of interactions was evaluated through decrease in BRET due to competitive displacement of a bound tracer by excess parental compound. Each tracer was analyzed for binding to each HiBiT-GPCR fusion in the absence and in the presence of competing parental compound. Briefly, HEK293 cells were transfected with HiBiT-GPCR constructs diluted into promoterless DNA to reduce expression and maximize translocation to the cell surface. Each tracer candidate was then screened at concentrations of 1 μM and 0.1 μM across cells expressing these fusions. Cells were treated for 1.5 h with tracer either alone or in the presence of 20 μM competing parental compound (i.e., control). BRET was measured upon addition of purified LgBiT and subsequent complementation with HiBiT genetically fused to a GPCR. The specificity of interactions was assessed through a decrease in BRET signal due to competitive displacement of the bound tracer. To further gauge the robustness of these interactions, the fold response over the control (i.e., BRETtracer/BRETcontrol) was calculated. We chose a 1.5-fold response, which translates to ≥7-fold signal over noise as the minimal threshold required to score an interaction as positive. […]. Below we highlight the screening results obtained for our exemplary fluorescent tracers based on Clozapine, Amitriptyline and AZD1283.
(§2) HiBiT-GPCR DNA constructs were diluted in 10 mM Tris pH 8 to a final concentration of 0.01 μg/μL, arrayed in 96-well plates and stored at −20 °C. For transfection, HEK293 cells were suspended in Opti-MEM (without phenol red) supplemented with 2% fetal bovine serum (Seradigm) and 100 units/mL penicillin–streptomycin (Gibco) at a final concentration of 220,000 cells/mL and dispensed into white 96-well plates at 90 μL/well. Subsequent transfections and screens were carried using an Agilent Bravo Automated Liquid Handling Platform. First, the 96-well HiBiT DNA arrays were diluted 25-fold in Opti-MEM (without serum or phenol red) to a final concentration of 0.0004 μg/μL and 20 μL of the diluted DNAs were transferred into new 96-well plates. Next, promoterless carrier DNA (1 μg/μL) was diluted 25-fold (0.04 μg/μL) and then dispensed into the diluted arrays at 20 μL/well. Following brief mixing, Viafect transfection reagent (Promega) diluted 16-fold into Opti-MEM was dispensed into the plates at 40 μL/well. After mixing by pipetting, plates were incubated for 10 min on the pipetting station deck. The DNA-transfection reagent complexes were then added to plates containing cells. To facilitate the screen, 10 μL of DNA-transfection reagent complexes were added in duplicates to the top 4 and bottom 4 rows, resulting in two identical 48-well arrays per plate. Plates with transfected cells were incubated for 18–20 h at 37 °C/5% CO2. A screen of each tracer across the entire library using two different concentrations requires duplicate plates of transfected cells. Depending on the number of tracers being screened, transfections can be scaled up using the same ratios. The next day, for each tracer, four 20× screening solutions in tracer dilution buffer (Promega) were prepared: two duplicates at final concentration of 20 μM and two duplicates at a final concentration of 2 μM. A competing unmodified compound was added to one of each duplicate at a final concentration of 400 μM. The four resulting solutions were diluted 4-fold in Opti-MEM without serum or phenol red to generate 5× solutions (5 µM and 0.5 µM tracer +/− 100 μM competing compound). To screen the library, a BioTek MultiFlo FX liquid dispenser was used to dispense 22.5 µL of tracer solution to the top 4 rows and 22.5 µL tracer + competing compound solution to the 4 bottom rows. Plates were briefly mixed on an orbital shaker and incubated for 1.5 h at room temperature. […]

ADRA2C = biological target: T2, ADRA2C (Homo sapiens, UniProt P18825); assay: NanoBRET screen HiBiT-ADRA2C in HEK293; conditions: ADRA2C
T2 construct: purchased Promega (in-house HiBiT-GPCR construct library, NanoBRET)
T2 sequence (P18825 1-462): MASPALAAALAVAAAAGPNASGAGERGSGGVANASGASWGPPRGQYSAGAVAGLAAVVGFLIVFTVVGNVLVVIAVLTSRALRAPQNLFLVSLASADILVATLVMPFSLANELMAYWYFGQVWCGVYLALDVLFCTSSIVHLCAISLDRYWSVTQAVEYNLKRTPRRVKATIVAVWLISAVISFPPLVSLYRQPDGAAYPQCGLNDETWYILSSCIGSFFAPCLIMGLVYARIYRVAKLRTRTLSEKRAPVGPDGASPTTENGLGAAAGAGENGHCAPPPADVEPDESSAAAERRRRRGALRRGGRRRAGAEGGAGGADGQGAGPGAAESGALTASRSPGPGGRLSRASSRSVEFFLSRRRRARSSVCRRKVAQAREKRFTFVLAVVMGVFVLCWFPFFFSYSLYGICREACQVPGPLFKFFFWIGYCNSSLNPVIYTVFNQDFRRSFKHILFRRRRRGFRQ
Experimental: as §1, §2

HRH2 = biological target: T3, HRH2 (Homo sapiens, UniProt P25021); assay: NanoBRET screen HiBiT-HRH2 in HEK293; conditions: HRH2
T3 construct: purchased Promega (in-house HiBiT-GPCR construct library, NanoBRET)
T3 sequence (P25021 whole entry): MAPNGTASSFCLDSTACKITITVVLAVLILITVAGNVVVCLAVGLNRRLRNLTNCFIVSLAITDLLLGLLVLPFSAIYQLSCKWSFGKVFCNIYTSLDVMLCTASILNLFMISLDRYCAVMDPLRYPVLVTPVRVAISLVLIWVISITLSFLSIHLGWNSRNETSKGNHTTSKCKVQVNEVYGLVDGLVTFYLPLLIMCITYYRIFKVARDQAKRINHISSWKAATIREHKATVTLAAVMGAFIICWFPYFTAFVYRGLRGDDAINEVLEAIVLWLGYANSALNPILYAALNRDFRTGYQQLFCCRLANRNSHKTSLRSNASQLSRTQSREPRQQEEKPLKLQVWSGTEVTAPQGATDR
Experimental: as §1, §2

MC4R = biological target: T4, MC4R (Homo sapiens, UniProt P32245); assay: NanoBRET screen HiBiT-MC4R in HEK293; conditions: MC4R
T4 construct: purchased Promega (in-house HiBiT-GPCR construct library, NanoBRET)
T4 sequence (P32245 whole entry): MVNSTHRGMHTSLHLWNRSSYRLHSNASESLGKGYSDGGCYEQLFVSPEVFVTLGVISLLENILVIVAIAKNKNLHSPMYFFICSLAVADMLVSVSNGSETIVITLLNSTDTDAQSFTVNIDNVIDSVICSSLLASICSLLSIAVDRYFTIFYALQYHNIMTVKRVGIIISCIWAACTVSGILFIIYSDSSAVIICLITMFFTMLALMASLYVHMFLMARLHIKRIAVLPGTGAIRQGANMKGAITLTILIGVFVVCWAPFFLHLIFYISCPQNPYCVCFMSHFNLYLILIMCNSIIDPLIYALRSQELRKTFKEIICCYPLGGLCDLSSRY
Experimental: as §1, §2

RXFP4 = biological target: T5, RXFP4 (Homo sapiens, UniProt Q8TDU9); assay: NanoBRET screen HiBiT-RXFP4 in HEK293; conditions: RXFP4
T5 construct: purchased Promega (in-house HiBiT-GPCR construct library, NanoBRET)
T5 sequence (Q8TDU9 whole entry): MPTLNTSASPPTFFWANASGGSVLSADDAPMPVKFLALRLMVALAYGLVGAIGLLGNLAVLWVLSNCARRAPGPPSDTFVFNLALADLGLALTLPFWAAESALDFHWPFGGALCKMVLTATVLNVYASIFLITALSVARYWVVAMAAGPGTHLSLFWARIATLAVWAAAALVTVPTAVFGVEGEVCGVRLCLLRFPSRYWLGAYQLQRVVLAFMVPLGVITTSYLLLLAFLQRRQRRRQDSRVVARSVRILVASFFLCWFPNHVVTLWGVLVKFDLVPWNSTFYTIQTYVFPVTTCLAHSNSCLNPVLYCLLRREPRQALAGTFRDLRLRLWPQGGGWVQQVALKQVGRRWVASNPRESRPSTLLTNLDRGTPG
Experimental: as §1, §2

MC3R = biological target: T6, MC3R (Homo sapiens, UniProt P41968); assay: NanoBRET screen HiBiT-MC3R in HEK293; conditions: MC3R
T6 construct: purchased Promega (in-house HiBiT-GPCR construct library, NanoBRET)
T6 sequence (P41968 whole entry): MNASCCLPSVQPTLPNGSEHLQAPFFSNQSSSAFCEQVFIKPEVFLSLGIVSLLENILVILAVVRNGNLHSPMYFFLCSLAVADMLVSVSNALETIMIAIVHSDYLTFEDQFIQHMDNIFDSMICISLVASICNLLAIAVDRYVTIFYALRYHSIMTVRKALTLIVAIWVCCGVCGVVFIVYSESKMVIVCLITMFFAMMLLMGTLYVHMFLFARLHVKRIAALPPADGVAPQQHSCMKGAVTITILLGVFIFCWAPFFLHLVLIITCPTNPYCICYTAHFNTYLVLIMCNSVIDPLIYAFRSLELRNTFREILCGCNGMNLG
Experimental: as §1, §2

RXFP2 = biological target: T7, RXFP2 (Homo sapiens, UniProt Q8WXD0); assay: NanoBRET screen HiBiT-RXFP2 in HEK293; conditions: RXFP2
T7 construct: purchased Promega (in-house HiBiT-GPCR construct library, NanoBRET)
T7 sequence (Q8WXD0 whole entry): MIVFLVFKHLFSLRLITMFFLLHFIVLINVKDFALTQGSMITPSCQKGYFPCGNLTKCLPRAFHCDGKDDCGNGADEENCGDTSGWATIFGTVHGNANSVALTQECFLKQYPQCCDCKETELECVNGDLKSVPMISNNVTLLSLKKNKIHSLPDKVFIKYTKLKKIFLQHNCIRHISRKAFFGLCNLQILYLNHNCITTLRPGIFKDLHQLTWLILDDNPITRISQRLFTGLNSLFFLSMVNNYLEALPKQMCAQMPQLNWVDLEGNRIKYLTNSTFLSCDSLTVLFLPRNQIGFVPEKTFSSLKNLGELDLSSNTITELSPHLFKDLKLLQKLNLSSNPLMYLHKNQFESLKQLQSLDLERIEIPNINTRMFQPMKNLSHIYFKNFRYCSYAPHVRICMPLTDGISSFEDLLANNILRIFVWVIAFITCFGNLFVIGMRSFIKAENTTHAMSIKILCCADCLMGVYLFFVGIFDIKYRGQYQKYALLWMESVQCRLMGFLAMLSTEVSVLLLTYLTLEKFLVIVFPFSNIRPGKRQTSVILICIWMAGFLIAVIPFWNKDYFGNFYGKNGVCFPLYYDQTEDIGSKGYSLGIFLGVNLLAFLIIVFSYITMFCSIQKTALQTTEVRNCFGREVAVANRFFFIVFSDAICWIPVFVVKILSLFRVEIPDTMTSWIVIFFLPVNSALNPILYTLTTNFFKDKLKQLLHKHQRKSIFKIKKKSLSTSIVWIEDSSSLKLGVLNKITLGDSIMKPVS
Experimental: as §1, §2

Row | Structure (SMILES) | NanoBRET Fold Response (P2RY11; tracer 0.1μM) | NanoBRET Fold Response (P2RY11; tracer 1μM) | NanoBRET Fold Response (ADRA2C; tracer 0.1μM) | NanoBRET Fold Response (ADRA2C; tracer 1μM) | NanoBRET Fold Response (HRH2; tracer 0.1μM) | NanoBRET Fold Response (HRH2; tracer 1μM) | NanoBRET Fold Response (MC4R; tracer 0.1μM) | NanoBRET Fold Response (MC4R; tracer 1μM) | NanoBRET Fold Response (RXFP4; tracer 0.1μM) | NanoBRET Fold Response (RXFP4; tracer 1μM) | NanoBRET Fold Response (MC3R; tracer 0.1μM) | NanoBRET Fold Response (MC3R; tracer 1μM) | NanoBRET Fold Response (RXFP2; tracer 0.1μM) | NanoBRET Fold Response (RXFP2; tracer 1μM) | further results
1 | Cc1cc2c(s1)Nc1ccccc1N=C2N1CCN(CCCNC(=O)CCOCCOCCOCCOCCNC(=O)CCc2ccc3n2[B-](F)(F)[N+]2=C(c4ccc[nH]4)C=CC2=C3)CC1 [Olanzapine-a-2-NB590] | 1.00 | 0.89 | 0.97 | 1.50 | 0.89 | 0.85 | 1.00 | 1.07 | 0.95 | 0.91 | 1.00 | 1.12 | 0.27 | 0.46 | –
2 | O=C(CCc1ccc2n1[B-](F)(F)[N+]1=C(c3ccc[nH]3)C=CC1=C2)NCc1ccc(C(=O)NCCOCCOCCNCC(O)COc2cccc3ccccc23)cc1 (stereo not drawn) [Propranolol-3-NB590] | – | – | – | – | – | – | – | – | – | – | – | – | – | – | NanoBRET Fold Response (P2RY11; 0.1μM): 1.03; NanoBRET Fold Response (P2RY11; 1μM): 0.96; NanoBRET Fold Response (ADRA2C; 0.1μM): 0.95; NanoBRET Fold Response (ADRA2C; 1μM): 1.05; NanoBRET Fold Response (HRH2; 0.1μM): 1.12; NanoBRET Fold Response (HRH2; 1μM): 0.97; NanoBRET Fold Response (MC4R; 0.1μM): 0.98; NanoBRET Fold Response (MC4R; 1μM): 0.99; NanoBRET Fold Response (RXFP4; 0.1μM): 1.02; NanoBRET Fold Response (RXFP4; 1μM): 1.05; NanoBRET Fold Response (MC3R; 0.1μM): 1.05; NanoBRET Fold Response (MC3R; 1μM): 0.99; NanoBRET Fold Response (RXFP2; 0.1μM): 0.27; NanoBRET Fold Response (RXFP2; 1μM): 0.78
3 | O=C(CCc1ccc2n1[B-](F)(F)[N+]1=C(c3ccc[nH]3)C=CC1=C2)NCCOCCOCCNC(=O)OCCOCCN1CCN(C2=Nc3ccccc3Sc3ccccc32)CC1 [Quetiapine-a-2-NB590] | 1.05 | 0.91 | – | 1.42 | 0.81 | 1.05 | 0.97 | 1.06 | 1.02 | 0.68 | 0.98 | 1.08 | 1.31 | 1.01 | –
4 | Cc1nc2n(c(=O)c1CCN1CCC(c3noc4cc(F)ccc34)CC1)CCCC2OC(=O)NCCOCCOCCOCCOCCNC(=O)CCc1ccc2n1[B-](F)(F)[N+]1=C(c3ccc[nH]3)C=CC1=C2 (stereo not drawn) [Risperidone-2-NB590] | 1.04 | 0.88 | 1.59 | 1.37 | 1.05 | 1.13 | 1.03 | 1.05 | 0.96 | 1.10 | 0.99 | 0.95 | 1.20 | – | –
5 | CC(C)N(CC[C@H](c1ccccc1)c1cc(CCNC(=O)CCOCCOCCOCCOCCNC(=O)CCc2ccc3n2[B-](F)(F)[N+]2=C(c4ccc[nH]4)C=CC2=C3)ccc1O)C(C)C [Tolterodine-2-NB590] | 1.31 | 0.83 | 0.85 | 1.04 | 1.06 | 0.82 | 1.07 | 1.00 | 0.96 | 1.06 | 0.82 | 1.04 | 1.11 | 1.30 | –
6 | CC(C)N(CC[C@H](c1ccccc1)c1cc(CCNC(=O)c2ccc(CNC(=O)CCc3ccc4n3[B-](F)(F)[N+]3=C(c5ccc[nH]5)C=CC3=C4)cc2)ccc1O)C(C)C [Tolterodine-BZ-NB590] | 1.07 | 0.96 | 1.09 | 1.11 | 1.05 | 0.87 | 1.00 | 1.01 | 1.08 | 0.98 | 1.03 | 1.01 | 0.34 | 0.83 | –
7 | CCCn1c(=O)c2[nH]c(-c3ccc(OCC(=O)NCCNC(=O)CCOCCNC(=O)c4ccc(CNC(=O)CCc5ccc6n5[B-](F)(F)[N+]5=C(c7ccc[nH]7)C=CC5=C6)cc4)cc3)nc2n(CCC)c1=O [XAC-3-NB590] | 1.21 | 1.25 | 0.77 | 1.20 | 0.82 | 1.15 | 1.02 | 1.04 | 1.00 | 0.96 | 1.04 | 1.10 | 1.20 | 1.28 | –
